According to ChEMBL document CHEMBL1139562, “A switch in enantiomer preference between mitochondrial F1F0-ATPase chemotypes” (Bioorg Med Chem Lett, 2005):

What was measured:
[1] = target: T1, Mitochondrial complex V; ATP synthase (Bos taurus) (UniProt P05632+P00829+P05631+P05630); assay: Inhibitory activity against mitochondrial ATP synthase from bovine; assay type: protein-complex assay
[2] = target: T1, Mitochondrial complex V; ATP synthase (Bos taurus); assay: Inhibitory activity against mitochondrial ATP hydrolase from bovine; assay type: protein-complex assay
[3] = target: T1, Mitochondrial complex V; ATP synthase (Bos taurus); assay: Inhibitory activity against mitochondrial ATP synthase from bovine

Row | Inhibition [1] [nM] | Inhibition [2] [µM] | Inhibition [3] [µM] | Structure (SMILES)
1 | 18 | > 100 | – | N#Cc1cccc(C(=O)N/C(=N\[C@H](Cn2ccnc2)c2ccc(Cl)cc2Cl)Nc2ccc(Cl)cc2)c1
2 | 140 | > 100 | – | S=C(Nc1ccc(Cl)cc1)O[C@@H](Cn1ccnc1)c1ccc(Cl)cc1Cl
3 | > 100000 | – | > 100 | N#Cc1cccc(C(=O)N/C(=N\[C@@H](Cn2ccnc2)c2ccc(Cl)cc2Cl)Nc2ccc(Cl)cc2)c1
4 | 2200 | > 100 | – | S=C(Nc1ccc(Cl)cc1Cl)O[C@H](Cn1ccnc1)c1ccc(Cl)cc1Cl
5 | 3600 | > 100 | – | S=C(Nc1ccc(Cl)cc1)O[C@H](Cn1ccnc1)c1ccc(Cl)cc1Cl
6 | 19 | > 100 | – | S=C(Nc1ccc(Cl)cc1Cl)O[C@@H](Cn1ccnc1)c1ccc(Cl)cc1Cl
